The source of these data is patent publication US10702465B2, “Oral care formulation and method for the removal of tartar and plaque from teeth” (priority 2015, dated 2020).

Entries after “also recorded” stand apart in the source; their conditions may differ.

Data set [1] in a line: Centrifuge studies of colloidal fragmentation of tartar. Particulars: each agent alone. Type of data set: in vivo, human. An excerpt:
Together DMI and chlorine dioxide fragment the insoluble glucan and polypeptide matrix which hold tartar together. […] Not to be held to any specific mechanism of action, it would appear that the primary role of chlorine dioxide is to break polypeptide linkages and protein polyol linkages. But this ability alone is insufficient for tartar fragmentation. The insoluble glucan matrix also appears to provide much of the needed glue to keep the tartar intact. Dimethyl isosorbide appears to enter the cracks within the insoluble glucan structure and splay out the glucan structure which in turn promotes the entry of water to re-hydrate the normally insoluble glucan and destabilize and glucan/biofilm matrix and fragment the tartar structure. Evidence for this rehydration and fragmentation mechanism is provided in the following two studies.
In the first study the subject's teeth were flossed with Reach floss, then flossed with a Waterpik water flosser. After the water flossing the water was removed from the mouth. 3 ml of distilled water was added to the mouth and the teeth were brushed with only water for 2 minutes. After the 2 minutes brushing cycle, the water was expelled into a funnel into a centrifuge tube. The subject's teeth were again flossed with a water flosser and then procedure “A” was followed three more times for a total of four 2 minute brushing cycles. […]

For data set [2] the following is noted: background statement; cited from earlier work.
A further data set has as its system Streptococcus mutans. The note with it: high concentrations; cited from earlier work.
A short description of data set [3]: Tartar removal trials by flossing and brushing, intraoral photographs (Example 5). The format is in vivo, human. Particulars: with chlorine dioxide. An excerpt: All photographs in this example were taken by a professional oral hygienist using a Schick intraoral digital camera.
In other unsuccessful trials dimethyl isosorbide was mixed with numerous common tartar reducing toothpastes. The following picture is typical the failed result of six months of flossing with Reach® waxed floss and brushing twice per day with these various tartar reducing toothpastes with a Philips Sonicare® toothbrush for two minutes. The DMI concentration in each case was 7.1% (w).
The white spots present in FIGS. 15 and 17 are from enamel erosion from previous years of heavy tartar presence and attack of the enamel by bacteria.
In a separate study, 5% (w) DMI was mixed with 0.0094% (w) chlorine dioxide in of water [94.5% (w)]. After flossing the DMI-chlorine dioxide-water mixture was transferred to the mouth of the subject and the subject brushed the teeth for 2 minutes with Philips Sonicare®. After 6 weeks of flossing and brushing twice per day with the DMI-chlorine dioxide-water mixture, the photograph of FIG. 16 was taken.
After the picture of FIG. 16 was taken the trial formulation was changed from 5% (w) to 15% DMI 0.0085% (w) chlorine dioxide in water [84.9% (w)]. This new formulation was used for 8 weeks with the same flossing and brushing regimen used in the first 6 weeks. […]

The conditions of data set [4]: 24 hour period, 100% and 50% aqueous concentrations; cited from earlier work.
A short description of data set [5]: Tolerability of chlorine dioxide concentrations in use.

For the compound `CO[C@H]1CO[C@H]2[C@@H]1OC[C@H]2OC` [DMIS, dimethylisosorbide], the “ability to fragment the tartar matrix” value in data set [1] (listed as DMI) was “Neither chlorine dioxide nor DMI by themselves show the ability to fragment the tartar matrix; also recorded: Neither chlorine dioxide nor DMI alone show the ability to fragment this matrix; also recorded: insufficient to allow DMI alone to rehydrate and fragment the tartar matrix”. Further, in data set [2], the “removal of tartar from teeth” value is on record as “not effective at removing tartar from subjects' teeth in vivo”. In addition, the antibacterial properties entry in the data set with Streptococcus mutans is “weak antibacterial at high concentrations”. Moreover, in data set [3] (DMI levels above 10% (w)), the “removal of preexisting tartar” value is on record as “removed fairly rapidly”. Further, the “level of DMI at which no tartar is reported” value in data set [3] (light tartar producers) is reported as “around 5% (w) or 8% (w)”. The “dissolution of collected dental tartar” value in data set [4] is reported as “slowly dissolved”.

Regarding `[O][Cl+][O-]` [chlorine dioxide], the “ability to fragment the tartar matrix” value in data set [1] is reported as “Neither chlorine dioxide nor DMI by themselves show the ability to fragment the tartar matrix; also recorded: Neither chlorine dioxide nor DMI alone show the ability to fragment this matrix”. In data set [2], the “removal of tartar from teeth” value is “ineffective in removing tartar”. The problems in use result in data set [5] (chlorine dioxide at 0.01%) is listed as “no reported problems”; in data set [5] (increased concentrations of chlorine dioxide (above 0.01%)) it was “no problems”.
